Patent US11083729B2, “Methods of treating cancer with small molecule NF-κB inhibitors” (ImmuneTarget, Inc., priority 2017, dated 2021)

Tests used:
Type in all cases: cell-based
Capan-1 = experiment: CellTiter-Glo IG50, Example 8, Capan-1; details: Homo sapiens, Capan-1, 72 hours
Procedure: (§1) Various pancreatic, liver, colon, breast, and stomach cancer cell lines were exposed to the NF-κB inhibitors of the present invention, including, for example, IT-839, IT-843, IT-848, and IT-878, and assessed for IG50 in the CellTiter Glo 2.0 assay.
(§2) The cells were cultured in an atmosphere of 37° C., 5% CO2 and 95% humidity. All culture media and FBS were purchased from GIBCO, Hyclone or Sigma, USA. The media used for cell culture is described in the table below.
(§3) The cells were harvested during the logarithmic growth period and counted. Cell concentrations were adjusted to the appropriate number in appropriate medium and 90 μl cell suspensions were added to 96-well plates. When cells were added, the plates were shaken gently to distribute the cells evenly. Cells were incubated at 37° C. and 5% CO2.
(§4) 3× serial dilutions of test compound stock solutions with respective solvents were prepared. The stock solutions were diluted with culture medium to generate 10× working solutions of the test compounds. 10 μl of the 10× test compound solutions were added to each well in triplicate for each concentration. Plates were incubated for 72 hours in a humidified incubator at 37° C. and 5% CO2.
(§5) CellTiter-Glo (CTG) solution was thawed and equilibrated to room temperature. 50 μl of CTG were added to each well and the contents were mixed for 2 minutes on a plate shaker. Cells were incubated for 10 minutes before luminescence signal was recorded using Envision.
(§6) Cell viability was plotted with GraphPad Prism version 5 and the IG50 was calculated for each cell line. The graphical curves were fitted using a nonlinear regression model with a sigmoidal dose response. IG50 is the concentration of test drug where 100×T/C=50 (the optical density of the test well after a 3-day period of exposure to test drug is T; the control optical density is C).

PANC-1 = experiment: CellTiter-Glo IG50, Example 8, PANC-1; details: Homo sapiens, PANC-1, 72 hours
Procedure: as §1, §2, §3, §4, §5, §6

MIAPACA-2 = experiment: CellTiter-Glo IG50, Example 8, MIAPACA-2; details: Homo sapiens, MIA PaCa-2, MIAPACA-2, 72 hours
Procedure: as §1, §2, §3, §4, §5, §6

PLC/PRF/5 [1] = experiment: CellTiter-Glo IG50, Example 8, PLC/PRF/5; details: Homo sapiens, PLC/PRF/5, 72 hours
Procedure: as §1, §2, §3, §4, §5, §6

HepG2 [2] = experiment: CellTiter-Glo IG50, Example 8, HepG2; details: Homo sapiens, HepG2, 72 hours
Procedure: as §1, §2, §3, §4, §5, §6

Hep3B [3] = experiment: CellTiter-Glo IG50, Example 8, Hep3B; details: Homo sapiens, 72 hours
Procedure: as §1, §2, §3, §4, §5, §6

HCT116 = experiment: CellTiter-Glo IG50, Example 8, HCT116; details: Homo sapiens, HCT-116, HCT116, 72 hours
Procedure: as §1, §2, §3, §4, §5, §6

HT-29 = experiment: CellTiter-Glo IG50, Example 8, HT-29; details: Homo sapiens, HT-29, 72 hours
Procedure: as §1, §2, §3, §4, §5, §6

LoVo = experiment: CellTiter-Glo IG50, Example 8, LoVo; details: Homo sapiens, 72 hours
Procedure: as §1, §2, §3, §4, §5, §6

MCF-7 = experiment: CellTiter-Glo IG50, Example 8, MCF-7; details: Homo sapiens, MCF7, MCF-7, 72 hours
Procedure: as §1, §2, §3, §4, §5, §6

MDA-MB-231 = experiment: CellTiter-Glo IG50, Example 8, MDA-MB-231; details: Homo sapiens, MDA-MB-231, 72 hours
Procedure: as §1, §2, §3, §4, §5, §6

T47D = experiment: CellTiter-Glo IG50, Example 8, T47D; details: Homo sapiens, 72 hours
Procedure: as §1, §2, §3, §4, §5, §6

AGS = experiment: CellTiter-Glo IG50, Example 8, AGS; details: Homo sapiens, 72 hours
Procedure: as §1, §2, §3, §4, §5, §6

MKN45 = experiment: CellTiter-Glo IG50, Example 8, MKN45; details: Homo sapiens, MKN-45, MKN45, 72 hours
Procedure: as §1, §2, §3, §4, §5, §6

KATO III = experiment: CellTiter-Glo IG50, Example 8, KATO III; details: Homo sapiens, 72 hours
Procedure: as §1, §2, §3, §4, §5, §6

HepG2 [4] = experiment: CellTiter-Glo IG50, Example 9 HCC panel, HepG2; details: Homo sapiens, HepG2, 72 hours
Procedure: as §3, §4, §5, §6, §2
(§7) Following the cell culture protocol and data analysis methods described in Example 8, the following IG50 results (in μM) were observed: […]

Hep3B [5] = experiment: CellTiter-Glo IG50, Example 9 HCC panel, Hep3B; details: Homo sapiens, 72 hours
Procedure: as §3, §4, §5, §6, §2, §7

PLC/PRF/5 [6] = experiment: CellTiter-Glo IG50, Example 9 HCC panel, PLC/PRF/5; details: Homo sapiens, PLC/PRF/5, 72 hours
Procedure: as §3, §4, §5, §6, §2, §7

HUH7 [7] = experiment: CellTiter-Glo IG50, Example 9 HCC panel, HUH7; details: Homo sapiens, Huh-7, HUH7, 72 hours
Procedure: as §3, §4, §5, §6, §2, §7

JHH5 [8] = experiment: CellTiter-Glo IG50, Example 9 HCC panel, JHH5; details: JHH5, 72 hours
Procedure: as §3, §4, §5, §6, §2, §7

PBMC [9] = experiment: CellTiter-Glo IG50, Example 9 HCC panel, PBMC; details: 72 hours
Procedure: as §3, §4, §5, §6, §2, §7

SNU878 [10] = experiment: CellTiter-Glo IG50, Example 9 HCC panel, SNU878; details: SNU878, 72 hours
Procedure: as §3, §4, §5, §6, §2, §7

HepG2 [11] = experiment: CellTiter-Glo IG50, Example 10 HCC panel, HepG2; details: Homo sapiens, HepG2, 72 hours
Procedure: as §3, §4, §5, §6, §2
(§8) Following the cell culture protocol and data analysis method described in Example 8, the following IG50 results (in μM) were observed: […]

Hep3B [12] = experiment: CellTiter-Glo IG50, Example 10 HCC panel, Hep3B; details: Homo sapiens, 72 hours
Procedure: as §3, §4, §5, §6, §2, §8

PLC/PRF/5 [13] = experiment: CellTiter-Glo IG50, Example 10 HCC panel, PLC/PRF/5; details: Homo sapiens, PLC/PRF/5, 72 hours
Procedure: as §3, §4, §5, §6, §2, §8

HUH7 [14] = experiment: CellTiter-Glo IG50, Example 10 HCC panel, HUH7; details: Homo sapiens, Huh-7, HUH7, 72 hours
Procedure: as §3, §4, §5, §6, §2, §8

JHH5 [15] = experiment: CellTiter-Glo IG50, Example 10 HCC panel, JHH5; details: JHH5, 72 hours
Procedure: as §3, §4, §5, §6, §2, §8

PBMC [16] = experiment: CellTiter-Glo IG50, Example 10 HCC panel, PBMC; details: 72 hours
Procedure: as §3, §4, §5, §6, §2, §8

SNU878 [17] = experiment: CellTiter-Glo IG50, Example 10 HCC panel, SNU878; details: SNU878, 72 hours
Procedure: as §3, §4, §5, §6, §2, §8

SMILES	IC50 (PANC-1) [µM]	IC50 (MIAPACA-2) [µM]	IC50 (MCF-7) [µM]	IC50 (MDA-MB-231) [µM]	IC50 (T47D) [µM]	IC50 (HepG2 [4]) [µM]	IC50 (Hep3B [5]) [µM]	IC50 (PLC/PRF/5 [6]) [µM]	IC50 (HUH7 [7]) [µM]	IC50 (JHH5 [8]) [µM]	IC50 (SNU878 [10]) [µM]	IC50 (Capan-1) [µM]	IC50 (PBMC [9]) [µM]	other results
CC(C)(C)CCOc1ccc2cc3c(=O)[nH]c(=O)nc-3oc2c1Cl [IT-845]	–	–	–	–	–	4.14	1.81	7.66	2.72	8.11	10.7	–	0.274	IC50 (HepG2 [11]): 6.95 µM; IC50 (Hep3B [12]): 4.03 µM; IC50 (PLC/PRF/5 [13]): 9.22 µM; IC50 (HUH7 [14]): 6.02 µM; IC50 (JHH5 [15]): 10.1 µM; IC50 (PBMC [16]): 2.4 µM; IC50 (SNU878 [17]): 9.8 µM
CCCCCCCOc1ccc2cc3c(=O)[nH]c(=O)nc-3oc2c1Cl [IT-846]	–	–	–	–	–	4.27	2.34	8.51	3.39	> 16	> 16	–	0.456	–
Nc1ccn([C@@H]2O[C@H](CO)[C@@H](O)C2(F)F)c(=O)n1 [Gemcitabine, gemcitabine, reference compound]	> 16	0.012	> 16	> 16	> 16	–	–	–	–	–	–	0.051	–	–

More lines, main results first:

IC50 (PANC-1) [µM]	IC50 (MIAPACA-2) [µM]	IC50 (MCF-7) [µM]	IC50 (MDA-MB-231) [µM]	IC50 (T47D) [µM]	IC50 (HepG2 [4]) [µM]	IC50 (Hep3B [5]) [µM]	IC50 (PLC/PRF/5 [6]) [µM]	IC50 (HUH7 [7]) [µM]	IC50 (JHH5 [8]) [µM]	IC50 (SNU878 [10]) [µM]	SMILES	IC50 (Capan-1) [µM]	IC50 (PBMC [9]) [µM]	other results
6.93	> 16	> 16	2.01	> 16	–	–	–	–	–	–	CC(C)CCCOc1cc2oc3nc(=O)[nH]c(=O)c-3cc2cc1F [IT-839]	> 16	–	IC50 (PLC/PRF/5 [1]): > 16 µM; IC50 (HepG2 [2]): 10.5 µM; IC50 (Hep3B [3]): 3.35 µM; IC50 (HCT116): > 16 µM; IC50 (HT-29): > 16 µM; IC50 (LoVo): 4.34 µM; IC50 (AGS): > 16 µM; IC50 (MKN45): > 16 µM; IC50 (KATO III): > 16 µM
–	–	–	–	–	4.9	> 16	> 16	17.7	8.5	> 16	COCCOCCOc1ccc2cc3c(=O)[nH]c(=O)nc-3oc2c1Cl [IT-876]	–	8.67	–
